Measurements from the NIST ThermoML archive (doi:10.1021/je060271a).
± gives the expanded uncertainty stated by the source.

Details: 323.14 K, Liquid, Vibrating tube method

Measured: mass density

CCCCCC(=O)OCC(COC(=O)CCCCC)(COC(=O)CCCCC)COC(=O)CCCCC [pentaerythritol tetrahexanoate]
978.3 ± 1.2 kg/m3: 8267.6 kPa
979.5 ± 1.2 kg/m3: 9812.4 kPa
979.3 ± 1.2 kg/m3: 9720.5 kPa
978.7 ± 1.2 kg/m3: 8617 kPa | 8645.1 kPa | 8678.7 kPa | 8712.2 kPa | 8775.3 kPa | 8907.8 kPa
976.3 ± 1.2 kg/m3: 5114.4 kPa | 5162.3 kPa | 5212 kPa | 5233.9 kPa | 5261.4 kPa | 5289.1 kPa | 5313.2 kPa
977.1 ± 1.2 kg/m3: 6178.1 kPa | 6361.8 kPa | 6380.8 kPa | 6403.6 kPa | 6446.5 kPa | 6489.3 kPa
977.9 ± 1.2 kg/m3: 7573.4 kPa | 7631.6 kPa
977.8 ± 1.2 kg/m3: 7194.3 kPa | 7273.9 kPa | 7326.7 kPa | 7351.7 kPa | 7381.1 kPa | 7460.9 kPa
978.4 ± 1.2 kg/m3: 8237.7 kPa | 8292.8 kPa | 8348.5 kPa | 8410 kPa
978.9 ± 1.2 kg/m3: 8971.8 kPa | 8997.6 kPa | 9020.2 kPa | 9183.3 kPa | 9204.3 kPa | 9226.4 kPa
976.6 ± 1.2 kg/m3: 5499.7 kPa | 5555.5 kPa | 5581.3 kPa | 5695.8 kPa
976.5 ± 1.2 kg/m3: 5184.8 kPa | 5445 kPa | 5469.8 kPa | 5611.7 kPa | 5635.4 kPa
977.6 ± 1.2 kg/m3: 7019.4 kPa | 7070.3 kPa | 7120.7 kPa | 7143.5 kPa | 7297.5 kPa
977.4 ± 1.2 kg/m3: 6641.5 kPa | 6690.9 kPa | 6711.7 kPa | 6732.6 kPa | 6757.6 kPa
976.8 ± 1.2 kg/m3: 5806.6 kPa | 5861.2 kPa | 5882.2 kPa | 5941.5 kPa | 5959.1 kPa | 5976.7 kPa | 5997.6 kPa | 6015.1 kPa | 6115.5 kPa | 6155.6 kPa
976.7 ± 1.2 kg/m3: 5659 kPa | 5678.8 kPa | 5715.8 kPa | 5733 kPa | 5749.7 kPa | 5769.6 kPa | 5786.4 kPa | 5823.9 kPa | 5844.1 kPa | 5899.3 kPa | 5920.4 kPa
979 ± 1.2 kg/m3: 9142.1 kPa
976.4 ± 1.2 kg/m3: 5337.7 kPa | 5363.2 kPa | 5421.2 kPa | 5530.1 kPa
977.7 ± 1.2 kg/m3: 7093.1 kPa | 7170.6 kPa | 7222.1 kPa | 7250.4 kPa
976.2 ± 1.2 kg/m3: 4951.5 kPa | 4972.1 kPa | 5088.6 kPa | 5140.5 kPa | 5392.1 kPa
977.5 ± 1.2 kg/m3: 6825.5 kPa | 6851.4 kPa | 6873.7 kPa | 6899.4 kPa | 6921.3 kPa | 6947.4 kPa | 6973.7 kPa | 6995.9 kPa | 7043.5 kPa
976 ± 1.2 kg/m3: 4906.2 kPa
978 ± 1.2 kg/m3: 7812.4 kPa
977 ± 1.2 kg/m3: 6036.5 kPa | 6054.3 kPa | 6196.6 kPa
979.1 ± 1.2 kg/m3: 9164.7 kPa
978.5 ± 1.2 kg/m3: 8323.1 kPa | 8379 kPa | 8436.3 kPa | 8466.9 kPa | 8498.7 kPa | 8557.3 kPa
976.1 ± 1.2 kg/m3: 4926.8 kPa | 4997.4 kPa | 5018.6 kPa | 5041 kPa | 5066.8 kPa
976.9 ± 1.2 kg/m3: 6075.8 kPa | 6094.3 kPa | 6134 kPa
977.3 ± 1.2 kg/m3: 6576.9 kPa | 6621.1 kPa | 6778.7 kPa | 6803.9 kPa
978.1 ± 1.2 kg/m3: 7784.6 kPa | 7839.9 kPa | 7863.3 kPa
977.2 ± 1.2 kg/m3: 6426.8 kPa | 6465.6 kPa | 6597.3 kPa | 6666.6 kPa
979.4 ± 1.2 kg/m3: 9820.8 kPa | 9834.6 kPa | 9846 kPa | 9859.9 kPa
978.8 ± 1.2 kg/m3: 8740.6 kPa | 8805.1 kPa | 8840.3 kPa | 8877 kPa | 8944 kPa
978.6 ± 1.2 kg/m3: 8525.2 kPa | 8584.2 kPa
